Measured values taken from PubChem BioAssay (NCI).
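In this assay, cells in 96-well plates receive the compound at five concentrations for 48 hours. Endpoints are linearly interpolated between the surrounding concentrations. GI50 = concentration required for 50% inhibition of growth. TGI marks complete inhibition of growth.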

Key:
Assay in all cases: NCI-60 cell line screen, 48 h
NCI/ADR-RES ovarian = test system: NCI/ADR-RES ovarian
UO-31 renal = test system: UO-31 renal
K-562 leukemia = test system: K-562 leukemia
CAKI-1 renal = test system: CAKI-1 renal
A549 NSCLC = test system: A549 NSCLC
MDA-MB-231 breast = test system: MDA-MB-231 breast
MDA-MB-435 = test system: MDA-MB-435
HCT-15 colon = test system: HCT-15 colon
TK-10 renal = test system: TK-10 renal
DU-145 prostate = test system: DU-145 prostate
NCI-H460 lung = test system: NCI-H460 lung
OVCAR-8 ovarian = test system: OVCAR-8 ovarian
SW-620 colon = test system: SW-620 colon
KM12 colon = test system: KM12 colon
OVCAR-5 ovarian = test system: OVCAR-5 ovarian
IGROV1 ovarian = test system: IGROV1 ovarian
HS 578T breast = test system: HS 578T breast
M14 melanoma = test system: M14 melanoma
LOX IMVI melanoma = test system: LOX IMVI melanoma
SF-295 CNS = test system: SF-295 CNS
SK-MEL-28 melanoma = test system: SK-MEL-28 melanoma
NCI-H522 lung = test system: NCI-H522 lung
MOLT-4 leukemia = test system: MOLT-4 leukemia
T-47D breast = test system: T-47D breast
786-0 renal = test system: 786-0 renal
SF-539 CNS = test system: SF-539 CNS
SK-MEL-2 melanoma = test system: SK-MEL-2 melanoma
COLO 205 colon = test system: COLO 205 colon
SR leukemia = test system: SR leukemia
UACC-257 melanoma = test system: UACC-257 melanoma
HCC-2998 colon = test system: HCC-2998 colon
SK-OV-3 ovarian = test system: SK-OV-3 ovarian
HT29 colon = test system: HT29 colon
SN12C renal = test system: SN12C renal
CCRF-CEM leukemia = test system: CCRF-CEM leukemia
PC-3 prostate = test system: PC-3 prostate
SF-268 CNS = test system: SF-268 CNS
MCF7 breast = test system: MCF7 breast
UACC-62 melanoma = test system: UACC-62 melanoma
RPMI-8226 leukemia = test system: RPMI-8226 leukemia
NCI-H23 lung = test system: NCI-H23 lung
HOP-92 NSCLC = test system: HOP-92 NSCLC
SK-MEL-5 melanoma = test system: SK-MEL-5 melanoma
U251 CNS = test system: U251 CNS
OVCAR-4 ovarian = test system: OVCAR-4 ovarian
A498 renal = test system: A498 renal
MALME-3M melanoma = test system: MALME-3M melanoma
SNB-19 CNS = test system: SNB-19 CNS
HCT-116 colon = test system: HCT-116 colon
BT-549 breast = test system: BT-549 breast
ACHN renal = test system: ACHN renal
NCI-H226 lung = test system: NCI-H226 lung
SNB-75 CNS = test system: SNB-75 CNS
HOP-62 NSCLC = test system: HOP-62 NSCLC
RXF 393 renal = test system: RXF 393 renal
EKVX NSCLC = test system: EKVX NSCLC
OVCAR-3 ovarian = test system: OVCAR-3 ovarian

CCCCCCN1CCN(Cc2ccc(N(CC)CC)cc2)C(=O)C1=O
GI50 (NCI/ADR-RES ovarian): 2.72 µM
GI50 (UO-31 renal): 5.22 µM
TGI (UO-31 renal): > 100 µM
GI50 (K-562 leukemia): 0.832 µM
TGI (K-562 leukemia): 75.4 µM
GI50 (CAKI-1 renal): 7.23 µM
TGI (CAKI-1 renal): > 100 µM
GI50 (A549 NSCLC): 4.29 µM
TGI (A549 NSCLC): > 100 µM
GI50 (MDA-MB-231 breast): 4.97 µM
TGI (MDA-MB-231 breast): > 100 µM
GI50 (MDA-MB-435): 0.448 µM
TGI (MDA-MB-435): 2.38 µM
GI50 (HCT-15 colon): 1.07 µM
TGI (HCT-15 colon): > 100 µM
GI50 (TK-10 renal): 10.3 µM
TGI (TK-10 renal): 77.5 µM
GI50 (DU-145 prostate): 3.38 µM
TGI (DU-145 prostate): 48.7 µM
GI50 (NCI-H460 lung): 3.35 µM
TGI (NCI-H460 lung): 17.3 µM
GI50 (OVCAR-8 ovarian): 5.42 µM
TGI (OVCAR-8 ovarian): > 100 µM
GI50 (SW-620 colon): 3.07 µM
TGI (SW-620 colon): > 100 µM
GI50 (KM12 colon): 2.47 µM
TGI (KM12 colon): 82.4 µM
GI50 (OVCAR-5 ovarian): 5.41 µM
TGI (OVCAR-5 ovarian): > 100 µM
GI50 (IGROV1 ovarian): 6.63 µM
TGI (IGROV1 ovarian): > 100 µM
GI50 (HS 578T breast): 3.14 µM
TGI (HS 578T breast): 27.7 µM
GI50 (M14 melanoma): 2.3 µM
TGI (M14 melanoma): 9.08 µM
GI50 (LOX IMVI melanoma): 7.95 µM
TGI (LOX IMVI melanoma): > 100 µM
GI50 (SF-295 CNS): 3.02 µM
TGI (SF-295 CNS): > 100 µM
GI50 (SK-MEL-28 melanoma): 7.17 µM
TGI (SK-MEL-28 melanoma): > 100 µM
GI50 (NCI-H522 lung): 2.03 µM
TGI (NCI-H522 lung): 5.14 µM
GI50 (MOLT-4 leukemia): 3.42 µM
TGI (MOLT-4 leukemia): 32.8 µM
GI50 (T-47D breast): 5.69 µM
TGI (T-47D breast): > 100 µM
GI50 (786-0 renal): 4.88 µM
TGI (786-0 renal): > 100 µM
GI50 (SF-539 CNS): 2.57 µM
TGI (SF-539 CNS): 8.23 µM
GI50 (SK-MEL-2 melanoma): 3.57 µM
TGI (SK-MEL-2 melanoma): 21.2 µM
GI50 (COLO 205 colon): 0.759 µM
TGI (COLO 205 colon): 10.1 µM
GI50 (SR leukemia): 1.03 µM
TGI (SR leukemia): 13.4 µM
GI50 (UACC-257 melanoma): 16.9 µM
TGI (UACC-257 melanoma): > 100 µM
GI50 (HCC-2998 colon): 6.45 µM
TGI (HCC-2998 colon): 28.2 µM
GI50 (SK-OV-3 ovarian): 3.61 µM
TGI (SK-OV-3 ovarian): > 100 µM
GI50 (HT29 colon): 3.34 µM
TGI (HT29 colon): > 100 µM
GI50 (SN12C renal): 5.19 µM
TGI (SN12C renal): 93.9 µM
GI50 (CCRF-CEM leukemia): 2.69 µM
TGI (CCRF-CEM leukemia): > 100 µM
GI50 (PC-3 prostate): 2.97 µM
TGI (PC-3 prostate): 54 µM
GI50 (SF-268 CNS): 6.21 µM
TGI (SF-268 CNS): > 100 µM
GI50 (MCF7 breast): 0.58 µM
TGI (MCF7 breast): 62.2 µM
GI50 (UACC-62 melanoma): 3.54 µM
TGI (UACC-62 melanoma): > 100 µM
GI50 (RPMI-8226 leukemia): 3.63 µM
TGI (RPMI-8226 leukemia): 19.2 µM
GI50 (NCI-H23 lung): 4.05 µM
TGI (NCI-H23 lung): 62.5 µM
GI50 (HOP-92 NSCLC): 4.21 µM
TGI (HOP-92 NSCLC): 38.2 µM
GI50 (SK-MEL-5 melanoma): 0.412 µM
TGI (SK-MEL-5 melanoma): 11.3 µM
GI50 (U251 CNS): 3.99 µM
TGI (U251 CNS): 62.3 µM
GI50 (OVCAR-4 ovarian): 6.73 µM
TGI (OVCAR-4 ovarian): 79.6 µM
GI50 (A498 renal): 0.973 µM
TGI (A498 renal): 5.77 µM
GI50 (MALME-3M melanoma): 4.25 µM
TGI (MALME-3M melanoma): > 100 µM
GI50 (SNB-19 CNS): 4.08 µM
TGI (SNB-19 CNS): > 100 µM
GI50 (HCT-116 colon): 3.92 µM
TGI (HCT-116 colon): > 100 µM
GI50 (BT-549 breast): 10.2 µM
TGI (BT-549 breast): 95.6 µM
GI50 (ACHN renal): 6.45 µM
TGI (ACHN renal): > 100 µM
GI50 (NCI-H226 lung): 5.84 µM
TGI (NCI-H226 lung): 27.8 µM
GI50 (SNB-75 CNS): 1.95 µM
TGI (SNB-75 CNS): 13.1 µM
GI50 (HOP-62 NSCLC): 4.97 µM
TGI (HOP-62 NSCLC): > 100 µM

COc1cc(/C=C/C(=O)OC[C@H](Br)[C@H](OC(C)=O)c2ccc3c(c2)OCO3)cc(OC)c1OC
TGI (NCI/ADR-RES ovarian): > 100 µM
TGI (UO-31 renal): > 100 µM
TGI (K-562 leukemia): > 100 µM
TGI (CAKI-1 renal): > 100 µM
TGI (A549 NSCLC): > 100 µM
TGI (MDA-MB-231 breast): > 100 µM
TGI (MDA-MB-435): > 100 µM
TGI (HCT-15 colon): > 100 µM
TGI (TK-10 renal): > 100 µM
TGI (DU-145 prostate): > 100 µM
TGI (OVCAR-8 ovarian): > 100 µM
TGI (SW-620 colon): > 100 µM
TGI (KM12 colon): > 100 µM
TGI (OVCAR-5 ovarian): > 100 µM
TGI (IGROV1 ovarian): > 100 µM
TGI (M14 melanoma): > 100 µM
TGI (LOX IMVI melanoma): > 100 µM
TGI (SF-295 CNS): > 100 µM
TGI (SK-MEL-28 melanoma): > 100 µM
TGI (NCI-H522 lung): > 100 µM
TGI (MOLT-4 leukemia): > 100 µM
TGI (RXF 393 renal): > 100 µM
TGI (T-47D breast): > 100 µM
TGI (786-0 renal): > 100 µM
TGI (SF-539 CNS): > 100 µM
TGI (SK-MEL-2 melanoma): > 100 µM
TGI (COLO 205 colon): > 100 µM
TGI (SR leukemia): > 100 µM
TGI (UACC-257 melanoma): > 100 µM
TGI (HCC-2998 colon): > 100 µM
TGI (SK-OV-3 ovarian): > 100 µM
TGI (HT29 colon): > 100 µM
TGI (SN12C renal): > 100 µM
TGI (CCRF-CEM leukemia): > 100 µM
TGI (PC-3 prostate): > 100 µM
TGI (SF-268 CNS): > 100 µM
TGI (MCF7 breast): > 100 µM
TGI (UACC-62 melanoma): > 100 µM
TGI (RPMI-8226 leukemia): > 100 µM
TGI (NCI-H23 lung): > 100 µM
TGI (HOP-92 NSCLC): > 100 µM
TGI (EKVX NSCLC): > 100 µM
TGI (SK-MEL-5 melanoma): > 100 µM
TGI (U251 CNS): > 100 µM
TGI (OVCAR-4 ovarian): > 100 µM
TGI (A498 renal): > 100 µM
TGI (MALME-3M melanoma): > 100 µM
TGI (SNB-19 CNS): > 100 µM
TGI (HCT-116 colon): > 100 µM
TGI (OVCAR-3 ovarian): > 100 µM
TGI (BT-549 breast): > 100 µM
TGI (ACHN renal): > 100 µM
TGI (NCI-H226 lung): > 100 µM
TGI (HOP-62 NSCLC): > 100 µM
